# Data as given in BindingDB's records for patent US11807646 (Almac Discovery, 2023).
# Biological target: T1, Ubiquitin carboxyl-terminal hydrolase 19 (Homo sapiens, UniProt O94966)
# T1 sequence (O94966 whole entry): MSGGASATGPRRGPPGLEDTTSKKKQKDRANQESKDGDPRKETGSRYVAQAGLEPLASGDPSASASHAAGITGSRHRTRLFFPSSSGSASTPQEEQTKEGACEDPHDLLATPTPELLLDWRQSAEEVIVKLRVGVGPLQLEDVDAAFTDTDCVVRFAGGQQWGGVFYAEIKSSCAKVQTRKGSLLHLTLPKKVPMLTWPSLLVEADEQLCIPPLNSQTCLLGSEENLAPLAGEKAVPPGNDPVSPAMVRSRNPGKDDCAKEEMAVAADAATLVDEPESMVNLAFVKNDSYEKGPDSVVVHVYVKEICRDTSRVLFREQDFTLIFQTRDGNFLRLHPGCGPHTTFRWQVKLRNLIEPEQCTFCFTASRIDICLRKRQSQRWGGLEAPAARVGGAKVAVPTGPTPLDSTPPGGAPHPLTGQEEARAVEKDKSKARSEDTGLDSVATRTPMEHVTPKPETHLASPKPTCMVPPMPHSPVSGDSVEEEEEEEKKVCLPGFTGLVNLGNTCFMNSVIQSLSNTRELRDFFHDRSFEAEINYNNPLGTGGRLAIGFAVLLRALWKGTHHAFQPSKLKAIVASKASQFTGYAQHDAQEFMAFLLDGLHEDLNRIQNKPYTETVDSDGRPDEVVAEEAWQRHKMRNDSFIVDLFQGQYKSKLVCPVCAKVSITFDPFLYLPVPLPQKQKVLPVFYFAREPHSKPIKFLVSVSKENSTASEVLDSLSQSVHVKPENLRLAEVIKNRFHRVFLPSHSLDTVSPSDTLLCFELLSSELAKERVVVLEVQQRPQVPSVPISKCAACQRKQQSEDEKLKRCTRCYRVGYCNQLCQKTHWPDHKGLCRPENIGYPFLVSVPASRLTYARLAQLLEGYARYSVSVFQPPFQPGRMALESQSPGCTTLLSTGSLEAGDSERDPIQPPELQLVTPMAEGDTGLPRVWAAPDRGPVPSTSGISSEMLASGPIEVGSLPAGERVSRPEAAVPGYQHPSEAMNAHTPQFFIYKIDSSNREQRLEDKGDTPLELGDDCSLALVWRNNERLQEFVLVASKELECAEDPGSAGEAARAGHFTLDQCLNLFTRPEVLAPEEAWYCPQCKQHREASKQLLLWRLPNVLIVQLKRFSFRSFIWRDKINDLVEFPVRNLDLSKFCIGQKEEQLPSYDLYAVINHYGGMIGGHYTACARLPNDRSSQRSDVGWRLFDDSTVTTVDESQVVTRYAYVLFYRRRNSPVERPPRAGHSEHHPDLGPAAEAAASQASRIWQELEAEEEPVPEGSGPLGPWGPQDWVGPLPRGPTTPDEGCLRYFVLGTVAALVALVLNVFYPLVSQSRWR
# Assay: Fluorescence Polarization (FP) Homogeneous Assay
# Procedure: Unless otherwise stated, all other reagents were purchased from Sigma. Enzymatic reactions were conducted in black flat bottom polystyrene 384-well plates (Nunc) and 30 μL total volume. […] Inhibitors were stored as 10 mM DMSO stocks in an inert environment (low humidity, dark, low oxygen, room temperature) using the Storage Pod System and serial dilutions were prepared in buffer just prior to the assay (from 200 μM to 2 pM, 8-18 data point curve). Following incubation at rt for 30 min, the enzymatic reactions were initiated by dispensing the Ub substrate (500 nM, 10 μL). FP was measured every 15 min over a period of 90 min (within the linear range of the assay) using a Synergy 4 plate reader (BioTek) exciting at 530 nm and measuring the amount of parallel and perpendicular light at 575 nm. The FP signal was subsequently normalized to the no compound control.
row,SMILES,IC50 [nM]
1,"O=C1CN(c2ccccc2)CCN1CC1(O)CCN(C(=O)NCc2ccccc2)CC12CCCC2 (configuration not stated) [US11807646, Example 109]",< 500
2,"CS(C)(=O)=Nc1cn(CC2(O)CCN(C(=O)N3CCNC[C@H]3c3ccccc3)CC23CCCC3)c(=O)cc1-c1ccccc1 (some centres not stated) [US11807646, Example 191]",< 500
3,"O=C(N1CC[C@@](O)(Cn2ncc(-c3ccccc3)cc2=O)C2(CCCC2)C1)N1CCOC[C@H]1c1ccccc1 [US11807646, Example 280]",< 500
4,"CN(C)c1cc(=O)n(C[C@]2(O)CCN(C(=O)N3CCNC[C@H]3c3ccccc3)CC23CCCC3)cn1 [US11807646, Example 318]",< 500

# Next, values leading:
row,IC50 [nM],SMILES
1,< 500,"O=C(N1CCC(O)(Cn2cnc(-c3ccccc3)cc2=O)C2(CCOCC2)C1)N1CCNC[C@H]1c1ccccc1 (some centres not stated) [US11807646, Example 321]"
2,< 500,"O=C(N1CC[C@@](O)(Cn2cc(F)c(-c3ccccc3)cc2=O)C2(CCCC2)C1)N1CCNC[C@H]1c1ccccc1 [US11807646, Example 331]"
3,< 500,"O=C(N1CC[C@@](O)(Cn2cnc(-c3ccccc3)cc2=O)C2(CCCC2)C1)N1CC[S+]([O-])CC1c1ccccc1 (some centres not stated) [US11807646, Example 337]"
